Where two headings read alike, the source gives them in different places.
Columns and labels:
[1] = tested on: Japanese domestic white rabbits; test: Test II - test on pyrogenicity (Japanese Pharmacopoeia); assay type: in vivo; details: for Number of Febrile Animals/Number of Tested Animals: 0.1 µg/kg intravenously, febrile = temperature increase of 0.6°C or more
Protocol: The pyrogenicity of the compounds of this invention was determined in terms of body temperature increase in rabbits after intravenous injection of the test compound in accordance with the test method of pyrogenicity defined in Japanese Pharmacopoeia. That is, the rectal temperatures of Japanese domestic white rabbits (body weight: 2 to 2.5 kg) were measured 3 times at one-hour intervals. When the temperature in the second and third measurements were substantially equal, the third temperature was taken as a reference temperature. Within 15 minutes after the third measurement, the test compound dissolved in pyrogen-free distilled water was injected in the ear vein, and the rectal temperature was measured 3 times at one-hour intervals after injection. A difference between the reference temperature and the maximum temperature was taken as an increase of body temperature, and the pyrogenicity of the test compound was expressed by the number of febrile animals showing a temperature increase of 0.6°C or more.

[2] = tested on: isolated murine lymphocytes (splenocytes); test: Test on mitogenicity ([³H]-labeled thymidine uptake); assay type: cell-based, BALB/c nu/nu mice; details: T/C, 48 hours incubation
Protocol: Spleen of BALB/c nu/nu mice (male; 8-week old) was minced, and lymphocytes collected from the minced spleen were incubated with graded doses of test compounds in RPMI 1640 medium without fetal bovine serum at 37°C at a concentration of 1 x 10⁵ to 1 x 10⁶ lymphocytes per mℓ for 48 hours. Twenty-four hours before the completion of the incubation, [³H]-labeled thymidine (manufactured by New England Nuclear) was added to the culture. After the completion of the incubation, cells were collected on glass micro-fiber paper and dried, and the radioactivity of [³H]-labeled thymidine incorporated into the cells was measured. The ratio of thymidine uptake in the test culture to which the test compound had been added to that in the respective control culture was determined as a stimulation index. The higher the stimulation index, the higher the mitogenicity.

Japanese white rabbits = assay type: in vivo; details: for Number of Necrosed Animals/Number of Tested Animals: 100 µg LPS intravenously 20 hours later
Protocol: The local Shwartzman reaction test (Test I) is examined to determine the phenomenon of necrosis, at the site where a test compound was injected, induced by intravenous injection of lipopolysaccharide (hereinafter referred to as LPS) after 20 hours from intracutaneous injection of the test compound to test animals, preferably in rabbits.
The test on Shwartzman reaction specific to endotoxin was carried out as follows using Japanese white rabbits (female, weighing around 3 kg). That is, Japanese domestic white rabbits were intracutaneously injected with the test compound. Twenty hours later, 100 µg of LPS extracted from Salmonella minnesota R595, Re-mutant was intravenously injected to each rabbit. The Shwartzman reaction-induction activity was expressed in terms of number of animals that suffered from hemorrhagic necrosis at the site that had been prepared by intracutaneous injection of the test compound.

[3] = tested on: clotting enzyme of Tachypleus tridentatus (horseshoe crab) amoebocytes; test: Test III - Limulus test (toxicolor test); assay type: biochemical; details: activity of 1 mg test compound converted to amount of LPS from E. coli 0111:B4
Text: Also, the compounds of this invention are very useful as a standard reagent for determination of endotoxin in the samples to be tested, and their activity has been confirmed by the local Shwartzman reaction test (Test I in Test Example 3), the pyrogenicity test (Test II in Test Example 3), and the activation of clotting enzyme of Tachypleus tridentatus (horseshoe crab) amoebocytes, i.e., Limulus test (Test III in Test Example 3).
The pyrogenicity of the compounds of this invention was also determined by Limulus test (toxicolor test). That is, the test compound was dissolved in a pyrogen-free 0.1% (vol/vol) triethylamine aqueous solution to a concentration of 2 mg/mℓ and diluted with pyrogen-free distilled water to a concentration of 4 X 10⁻¹ mg/mℓ. Subsequently, dilute aqueous solutions having concentrations of from 4 X 10⁻¹ mg/mℓ to 4 × 10⁻¹⁰ mg/mℓ were prepared by serial 10-fold dilution. […] Thereafter, 0.5 mℓ of sodium nitrite was added to the culture, and after stirring 0.1 mℓ each of ammonium sulfamate and N-(1-naphthyl)-ethylenediamine were added thereto to develop a color, and absorbance at a wavelength of 545 nm was determined. […]

SMILES	Number of Febrile Animals/Number of Tested Animals [1]	Stimulation Index ±S.E. ([2]; 0.01 µg/mℓ test compound added)	Stimulation Index ±S.E. ([2]; 0.1 µg/mℓ test compound added)	Stimulation Index ±S.E. ([2]; 1 µg/mℓ test compound added)	Number of Necrosed Animals/Number of Tested Animals (Japanese white rabbits; 20 µg/site intracutaneously)	Converted LPS Amount [3] [mg]	reaction in Test II (pyrogenicity) ([1]; summary in words)	Number of Necrosed Animals/Number of Tested Animals (Japanese white rabbits; 80 µg/site intracutaneously)	reaction in Test I (local Shwartzman reaction) (Japanese white rabbits; summary in words)
CCCCCCCCCCCCCC(=O)O[C@H](CCCCCCCCCCC)CC(=O)O[C@@H]1[C@@H](NC(=O)C[C@@H](CCCCCCCCCCC)OC(=O)CCCCCCCCCCC)[C@H](OC[C@H]2O[C@H](OP(=O)(O)O)[C@H](NC(=O)C[C@H](O)CCCCCCCCCCC)[C@@H](OC(=O)C[C@H](O)CCCCCCCCCCC)[C@@H]2O)O[C@H](CO)[C@H]1OP(=O)(O)O [Compound of Present Invention, 6-O-{2-Deoxy-2-[(R)-3-dodecanoyloxytetradecanoylamino]-3-O-[(R)-3-tetradecanoyloxytetradecanoyl]-4-O-phosphono-β-D-glucopyranosyl}-2-deoxy-2-[(R)-3-hydroxytetradecanoylamino]-3-O-[(R)-3-hydroxytetradecanoyl]-1-O-phosphono-α-D-glucopyranose]	3/4	4.06 ± 0.35	9.05 ± 0.70	11.76 ± 0.13	2/3	2.38			
CCCCCCCCCCC[C@@H](O)CC(=O)N[C@H]1[C@H](OC[C@H]2O[C@H](OP(=O)(O)O)[C@H](NC(=O)C[C@H](O)CCCCCCCCCCC)[C@@H](OC(=O)C[C@H](O)CCCCCCCCCCC)[C@@H]2O)O[C@H](CO)[C@@H](OP(=O)(O)O)[C@@H]1OC(=O)C[C@H](O)CCCCCCCCCCC [Control Compound 1, 6-O-{2-Deoxy-2-[(R)-3-hydroxytetradecanoylamino]-3-O-[(R)-3-hydroxytetradecanoyl]-4-O-phosphono-β-D-glucopyranosyl}-2-deoxy-2-[(R)-3-hydroxytetradecanoylamino]-3-O-[(R)-3-hydroxytetradecanoyl]-1-O-phosphono-α-D-glucopyranose]	0/3					1.34	negative	0/3	negative

Source: EP0172581B1, “Disaccharide derivatives” (DAIICHI SEIYAKU CO., LTD., priority 1984, dated 1986)
